Laboratory results reported in paper PMC5814047, “Peptidic inhibitors of insulin-degrading enzyme with potential for dermatological applications discovered via phage display” (PLoS ONE, 2018).
Read-outs that look alike come from different tables or passages of the source. Bridge positions count the residues as written; N and C are the ends. Peptide text beside a SMILES is read from it.

Experiments:
IDE [1] = target: T1, IDE (Homo sapiens, UniProt P14735); experiment: IDE activity assay, FAßB (amyloid ß-protein) degradation (fluorescence polarization); format: biochemical
T1 construct: made in house; host or cells: bacteria
T1 sequence (P14735 1-1019): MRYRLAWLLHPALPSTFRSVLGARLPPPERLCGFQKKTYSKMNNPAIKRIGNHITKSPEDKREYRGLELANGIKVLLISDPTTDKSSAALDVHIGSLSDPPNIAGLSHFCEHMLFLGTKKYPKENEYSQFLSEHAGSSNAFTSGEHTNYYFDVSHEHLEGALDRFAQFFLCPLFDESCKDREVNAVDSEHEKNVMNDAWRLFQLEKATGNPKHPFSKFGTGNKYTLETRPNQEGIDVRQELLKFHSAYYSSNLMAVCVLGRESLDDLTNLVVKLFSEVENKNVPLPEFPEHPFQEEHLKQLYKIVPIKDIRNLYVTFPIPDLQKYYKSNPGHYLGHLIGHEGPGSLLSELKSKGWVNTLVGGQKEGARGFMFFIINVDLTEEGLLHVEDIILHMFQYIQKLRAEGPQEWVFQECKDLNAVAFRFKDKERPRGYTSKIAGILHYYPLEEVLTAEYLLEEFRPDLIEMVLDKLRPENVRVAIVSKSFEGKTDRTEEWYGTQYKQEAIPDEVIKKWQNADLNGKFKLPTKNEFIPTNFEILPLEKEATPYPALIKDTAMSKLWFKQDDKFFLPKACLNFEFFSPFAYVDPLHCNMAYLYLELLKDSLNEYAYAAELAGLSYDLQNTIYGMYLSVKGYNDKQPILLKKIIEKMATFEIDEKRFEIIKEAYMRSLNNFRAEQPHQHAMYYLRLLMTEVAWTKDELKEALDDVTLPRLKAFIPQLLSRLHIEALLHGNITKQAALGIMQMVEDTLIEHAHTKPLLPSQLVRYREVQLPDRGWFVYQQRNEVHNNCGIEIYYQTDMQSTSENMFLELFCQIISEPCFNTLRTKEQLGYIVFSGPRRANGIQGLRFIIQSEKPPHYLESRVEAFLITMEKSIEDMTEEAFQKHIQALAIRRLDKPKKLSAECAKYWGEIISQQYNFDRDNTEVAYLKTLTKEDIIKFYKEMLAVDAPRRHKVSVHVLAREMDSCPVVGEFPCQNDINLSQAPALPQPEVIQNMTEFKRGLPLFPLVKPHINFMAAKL
Method: Taken together with the potency of all peptides against insulin (Table 1), we concluded that P12-3A represented the best inhibitor for further studies, and a highly purified, deliberately cyclized version (Fig 3A) was synthesized. […] Based on its potency, stability and selectivity for IDE, P12-3A was selected for use in downstream assays.
IDE activity was quantified by monitoring the degradation of Mca-[…](Dnp) (FRET1, 5 μM), fluoresceinated and biotinylated amyloid ß-protein (FAßB; 500 nM) or recombinant human insulin (50 nM) in PBS supplemented with 0.05% BSA. FRET1 degradation was measured by changes in fluorescence (λex = 340 nm, λem = 420 nm); FAßB degradation was monitored by fluorescence polarization (λex = 488 nm, λem = 525 nm), as described; and insulin degradation was quantified by ELISA. In vitro activity assays incorporated recombinant human IDE (1 nM) purified from bacteria. For quantitation of insulin degradation in primary murine skin fibroblasts, cells (1 x 10^5/well) were plated in 96-well plates and maintained in DMEM supplemented with 10% fetal bovine serum (FBS), 2mM glutamine, penicillin and streptomycin. After addition of insulin (10 nM or 100 nM), samples of conditioned medium were removed daily and quickly frozen, then insulin levels were quantified in parallel by ELISA according to manufacturer’s recommendations (Crystal Chem, Downers Grove, IL, USA). Assessment of the activity of P12-3A against a variety of matrix-metalloproteases was conducted using the Matrix Metalloproteinase (MMP) Inhibitor Profiling Kit, Fluorometric RED (Enzo Life Sciences, Inc., Farmingdale, NY, USA) according to manufacturer’s recommendations using the broad-spectrum MMP inhibitor, NNGH, as a positive control.

IDE [2] = target: T1, IDE; experiment: biochemical; details: for remaining activity at 500 µM: N 4, read-out: Percent activity at 500 uM, Mean
Outline: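 Recombinant human IDE (1 nM, bacterially expressed) degraded FRET1 substrate (5 μM), fluoresceinated biotinylated amyloid β (500 nM) or human insulin (50 nM) in PBS with 0.05% BSA. Peptides tested included N-acetylated and C-amidated variants.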

CC(C)C[C@H](NC(=O)[C@H](CO)NC(=O)[C@@H](N)CCC(N)=O)C(=O)N1CCC[C@H]1C(=O)N[C@@H](Cc1c[nH]c2ccccc12)C(=O)N[C@H]1CSSC[C@@H](C(=O)N[C@H](C(=O)N[C@H](C(N)=O)[C@@H](C)O)C(C)C)NC(=O)[C@H](Cc2c[nH]cn2)NC(=O)[C@@H]2CCCN2C(=O)[C@H](Cc2ccc(O)cc2)NC1=O [P12-3A] (H-QSLPWCYPHCVT-NH2; disulfide 6-10 (inferred))
remaining activity at 0.0005 µM (IDE [1]; FAßB, P12-3A 0.0005 uM, Replicates 4-6, read-out: Percent Activity (normalized source data)): 103% | remaining activity at 0.0016 µM (IDE [1]; FAßB, P12-3A 0.0016 uM, Replicates 4-6, read-out: Percent Activity (normalized source data)): 102% | remaining activity at 0.005 µM (IDE [1]; FAßB, P12-3A 0.005 uM, Replicates 4-6, read-out: Percent Activity (normalized source data)): 103% | remaining activity at 0.016 µM (IDE [1]; FAßB, P12-3A 0.016 uM, Replicates 4-6, read-out: Percent Activity (normalized source data)): 77.6% | remaining activity at 0.05 µM (IDE [1]; FAßB, P12-3A 0.050 uM, Replicates 4-6, read-out: Percent Activity (normalized source data)): 88.7% | remaining activity at 0.12 µM (IDE [1]; FAßB, P12-3A 0.12 uM, Replicates 1-3, read-out: Percent Activity (normalized source data)): 96.6% | remaining activity at 0.16 µM (IDE [1]; FAßB, P12-3A 0.16 uM, Replicates 4-6, read-out: Percent Activity (normalized source data)): 93.1% | remaining activity at 0.24 µM (IDE [1]; FAßB, P12-3A 0.24 uM, Replicates 1-3, read-out: Percent Activity (normalized source data)): 79.9% | remaining activity at 0.49 µM (IDE [1]; FAßB, P12-3A 0.49 uM, Replicates 1-3, read-out: Percent Activity (normalized source data)): 73.7% | remaining activity at 0.5 µM (IDE [1]; FAßB, P12-3A 0.50 uM, Replicates 4-6, read-out: Percent Activity (normalized source data)): 85.8% | remaining activity at 0.98 µM (IDE [1]; FAßB, P12-3A 0.98 uM, Replicates 1-3, read-out: Percent Activity (normalized source data)): 66.9% | remaining activity at 1.6 µM (IDE [1]; FAßB, P12-3A 1.6 uM, Replicates 4-6, read-out: Percent Activity (normalized source data)): 61.7% | remaining activity at 3.91 µM (IDE [1]; FAßB, P12-3A 3.91 uM, Replicates 1-3, read-out: Percent Activity (normalized source data)): 48.4% | remaining activity at 5 µM (IDE [1]; FAßB, P12-3A 5.0 uM, Replicates 4-6, read-out: Percent Activity (normalized source data)): 48.4% | remaining activity at 7.81 µM (IDE [1]; FAßB, P12-3A 7.81 uM, Replicates 1-3, read-out: Percent Activity (normalized source data)): 43.4% | remaining activity at 15.6 µM (IDE [1]; FAßB, P12-3A 15.6 uM, Replicates 1-3, read-out: Percent Activity (normalized source data)): 45.5% | remaining activity at 31.2 µM (IDE [1]; FAßB, P12-3A 31.2 uM, Replicates 1-3, read-out: Percent Activity (normalized source data)): 38.5% | remaining activity at 62.5 µM (IDE [1]; FAßB, P12-3A 62.5 uM, Replicates 1-3, read-out: Percent Activity (normalized source data)): 10.9% | remaining activity at 250 µM (IDE [1]; FAßB, P12-3A 250 uM, Replicates 1-3, read-out: Percent Activity (normalized source data)): 9.54% | inhibition of IDE in the selectivity panel (IDE [1]; P12-3A 100 μM, S4 Fig): significant inhibition was observed exclusively for IDE | remaining activity at 0.0005 µM (IDE [2]; FRET1, P12-3A 0.0005 uM, Replicates 4-6, read-out: Percent Activity (normalized source data)): 109% | remaining activity at 0.0016 µM (IDE [2]; FRET1, P12-3A 0.0016 uM, Replicates 4-6, read-out: Percent Activity (normalized source data)): 115% | remaining activity at 0.005 µM (IDE [2]; FRET1, P12-3A 0.005 uM, Replicates 4-6, read-out: Percent Activity (normalized source data)): 119% | remaining activity at 0.05 µM (IDE [2]; FRET1, P12-3A 0.050 uM, Replicates 4-6, read-out: Percent Activity (normalized source data)): 134% | remaining activity at 0.12 µM (IDE [2]; FRET1, P12-3A 0.12 uM, Replicates 1-3, read-out: Percent Activity (normalized source data)): 81.6% | remaining activity at 0.24 µM (IDE [2]; FRET1, P12-3A 0.24 uM, Replicates 1-3, read-out: Percent Activity (normalized source data)): 82.7% | remaining activity at 0.49 µM (IDE [2]; FRET1, P12-3A 0.49 uM, Replicates 1-3, read-out: Percent Activity (normalized source data)): 73.4% | remaining activity at 0.98 µM (IDE [2]; FRET1, P12-3A 0.98 uM, Replicates 1-3, read-out: Percent Activity (normalized source data)): 62.8% | remaining activity at 3.91 µM (IDE [2]; FRET1, P12-3A 3.91 uM, Replicates 1-3, read-out: Percent Activity (normalized source data)): 45.2% | remaining activity at 7.81 µM (IDE [2]; FRET1, P12-3A 7.81 uM, Replicates 1-3, read-out: Percent Activity (normalized source data)): 33% | remaining activity at 15.6 µM (IDE [2]; FRET1, P12-3A 15.6 uM, Replicates 1-3, read-out: Percent Activity (normalized source data)): 38.9% | remaining activity at 16 µM (IDE [2]; FRET1, P12-3A 16 uM, Replicates 4-6, read-out: Percent Activity (normalized source data)): 45.2% | remaining activity at 31.2 µM (IDE [2]; FRET1, P12-3A 31.2 uM, Replicates 1-3, read-out: Percent Activity (normalized source data)): 30.6% | remaining activity at 50 µM (IDE [2]; FRET1, P12-3A 50 uM, Replicates 4-6, read-out: Percent Activity (normalized source data)): 31.6% | remaining activity at 62.5 µM (IDE [2]; FRET1, P12-3A 62.5 uM, Replicates 1-3, read-out: Percent Activity (normalized source data)): 23.7% | remaining activity at 125 µM (IDE [2]; FRET1, P12-3A 125 uM, Replicates 1-3, read-out: Percent Activity (normalized source data)): 20.1% | remaining activity at 158 µM (IDE [2]; FRET1, P12-3A 158 uM, Replicates 4-6, read-out: Percent Activity (normalized source data)): 23.8% | remaining activity at 250 µM (IDE [2]; FRET1, P12-3A 250 uM, Replicates 1-3, read-out: Percent Activity (normalized source data)): 10.4% | remaining activity at 0.12207 µM (IDE [2]; dose-response, 0.12207 uM, individual runs, read-out: Percent Activity (normalized source data)): 87.1% | remaining activity at 0.488281 µM (IDE [2]; dose-response, 0.488281 uM, individual runs, read-out: Percent Activity (normalized source data)): 82.8% | remaining activity at 1.95312 µM (IDE [2]; dose-response, 1.95312 uM, individual runs, read-out: Percent Activity (normalized source data)): 78.7% | remaining activity at 7.8125 µM (IDE [2]; dose-response, 7.8125 uM, individual runs, read-out: Percent Activity (normalized source data)): 74% | remaining activity at 31.25 µM (IDE [2]; dose-response, 31.25 uM, individual runs, read-out: Percent Activity (normalized source data)): 40.2% | remaining activity at 125 µM (IDE [2]; dose-response, 125 uM, individual runs, read-out: Percent Activity (normalized source data)): 9.83% | IC50 <500 uM? (IDE [2]; initial test at 500 uM): YES | remaining activity at 500 µM (IDE [2]; initial test, percent of initial velocity relative to DMSO-only controls): 3.6% | remaining activity at 500 µM (IDE [2]; judged as IC50 <100 uM?): 17.1%
